# ChEMBL document CHEMBL1151444, “Failure of current cefepime breakpoints to predict clinical outcomes of bacteremia caused by gram-negative organisms” (2007)
# What was measured:
# Format in all cases: functional
# Enterobacter sp. = test: Antibacterial activity in Enterobacter sp. infected patient assessed as mortality after 28 days
# Serratia sp. = test: Antibacterial activity in Serratia sp. infected patient assessed as mortality after 28 days
# Pseudomonas aeruginosa = test: Antibacterial activity in Pseudomonas aeruginosa infected patient assessed as mortality after 28 days
# Escherichia coli = test: Antibacterial activity in Escherichia coli infected patient assessed as mortality after 28 days
# Proteus sp. = test: Antibacterial activity in Proteus sp. infected patient assessed as mortality after 28 days
# Klebsiella sp. = test: Antibacterial activity in Klebsiella sp. infected patient assessed as mortality after 28 days
smiles,measurement,setting,value
CO/N=C(\C(=O)N[C@@H]1C(=O)N2C(C(=O)[O-])=C(C[N+]3(C)CCCC3)CS[C@H]12)c1csc(N)n1 [CEFEPIME],Activity,Enterobacter sp.,21.7%
same,Activity,Serratia sp.,23.8%
same,Activity,Pseudomonas aeruginosa,39.1%
same,Activity,Escherichia coli,21.2%
same,Activity,Proteus sp.,25%
same,Activity,Klebsiella sp.,30.4%
